Molecular target: T1, CS6 protein (coli surface antigen 6; CS6 adhesin) (Escherichia coli, UniProt P53510)
T1 construct: gene cssB; CS6 complex (CssA and CssB structural subunits; operon cssA-cssD, recombinant plasmid pJT-CS6), no tag stated; secreted by E. coli TOP10-CS6, ammonium sulfate precipitate of culture supernatant; 125I-labelled; with CS6 fimbrial subunit A
Experiment: microtiter well binding of […]-labelled CS6 to coated glycosphingolipid
Settings: amount of glycosphingolipid coated per well, not a concentration; room temperature, 4 h

T1 sequence (P53508 19-154): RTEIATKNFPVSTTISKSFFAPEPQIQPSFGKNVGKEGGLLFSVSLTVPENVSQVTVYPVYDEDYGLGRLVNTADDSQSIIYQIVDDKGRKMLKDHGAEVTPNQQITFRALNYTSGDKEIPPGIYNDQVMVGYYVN
T1 sequence (P53510 22-167): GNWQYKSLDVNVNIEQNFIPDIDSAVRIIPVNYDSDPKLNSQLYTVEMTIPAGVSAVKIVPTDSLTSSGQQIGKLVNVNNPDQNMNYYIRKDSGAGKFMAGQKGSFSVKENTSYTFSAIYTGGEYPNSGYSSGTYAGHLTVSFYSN

Sulfatide [compound 3]
half-maximal binding: ~ 100 ng
